Measured values: patent US12252524B2, “GIP/GLP1 co-agonist compounds” (Eli Lilly and Company, priority 2018, dated 2025)
Numbered stars: 1 amine (or outer) side, 2 acyl side, 3 side chain; on linkers, the order of the positions; unused ones are H or OH. Square brackets hold non-standard residues; d marks the D form. Side chains are listed from the residue outwards. Peptide text beside a SMILES is read from it. * marks the point of attachment. C20 diacid = O=C(O)CCCCCCCCCCCCCCCCCCC(=O)*; C18 diacid = O=C(O)CCCCCCCCCCCCCCCCC(=O)*; γGlu = O=C(O)[C@H](CCC(=O)[*:2])N[*:1]; αMeL = CC(C)C[C@](C)(N)C(=O)O; Orn = NCCC[C@H](N)C(=O)O; AEEA = NCCOCCOCC(=O)O; Aib = CC(C)(N)C(=O)O

Assays:
[1] = molecular target: T1, gastric inhibitory peptide receptor (GIPR) (Homo sapiens, UniProt P48546); test: cAMP pharmacological functional assay in presence of casein, hGIPR; assay type: cell-based; conditions: HEK293 cells expressing hGIPR, 0.1% Casein, geometric mean; read-out: hGIPR cAMP Rel EC50 nM (SEM, n)
T1 sequence (P48546 22-466): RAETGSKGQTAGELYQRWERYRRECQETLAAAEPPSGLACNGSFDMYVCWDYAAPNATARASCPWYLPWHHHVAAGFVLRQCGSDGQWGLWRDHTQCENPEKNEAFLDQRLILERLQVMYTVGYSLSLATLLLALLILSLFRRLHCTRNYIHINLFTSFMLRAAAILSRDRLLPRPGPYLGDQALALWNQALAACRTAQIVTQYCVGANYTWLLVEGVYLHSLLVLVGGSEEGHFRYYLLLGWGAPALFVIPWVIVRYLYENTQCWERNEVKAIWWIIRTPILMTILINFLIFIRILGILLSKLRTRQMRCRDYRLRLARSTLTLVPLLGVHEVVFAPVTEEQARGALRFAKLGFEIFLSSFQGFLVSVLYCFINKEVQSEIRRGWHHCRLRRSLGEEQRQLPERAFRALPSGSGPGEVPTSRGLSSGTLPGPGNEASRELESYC

human GIP receptor = molecular target: T2, human GIP receptor (Homo sapiens, UniProt P48546); test: [125I]-GIP binding (SPA), human GIP receptor; conditions: read-out: hGIPR Ki, nM (SEM, n)
T2 construct: expressed in transfected cells; crude membranes
T2 sequence (P48546 22-466): T1 sequence (P48546 22-466)

human GLP-1R [2] = molecular target: T3, human GLP-1R (Homo sapiens, UniProt P43220); test: GLP-1R HEK293 cell membrane [35S]GTPγS binding assay; assay type: biochemical; parameters: expressed in transfected cells; host or cells: HEK293 cells expressing human GLP-1R; membranes; conditions: HEK293 cell membranes expressing human GLP-1R, [35S]GTPγS binding; read-out: hGLP1R GTPgS Rel EC50 nM (SEM, n)
Procedure: The GLP-1 receptor is a G-protein coupled receptor that increases GTP-bound Gas upon ligand induced receptor activation. The potency of peptides to stimulate-GLP-1R induced activation of Gac is determined using preparations of purified membranes from HEK293 cells expressing the human GLP-1R. […] The test peptides are solubilized in DMSO and diluted in reaction buffer containing 5 μg of membrane in 20 mM HEPES pH 7.4, 50 mM NaCl, 5 mM MgCl2, 40 μg/ml saponin, 0.1% BSA, and […] ^35S-labeled GTPTS for 30 minutes at room temperature. Reactions are terminated by addition of 0.2% Nonidet β-40 detergent containing rabbit anti-Gas polyclonal antibody and 0.5 mg of anti-rabbit polyvinyltoluene beads. Mixtures are developed for 30 minutes, centrifuged at 80×g for 10 minutes, and counted for 1 minute/well using a MicroBeta TriLux instrument. Peptide concentration-response curves are fit to a four-parameter logistic model to calculate potency as an EC50.

[3] = molecular target: human GLP-1 receptor (GLP-1R) (Homo sapiens, UniProt P43220); test: cAMP pharmacological functional assay in presence of casein, hGLP-1R; assay type: cell-based; conditions: HEK293 cells expressing hGLP-1R, 0.1% Casein, geometric mean; read-out: hGLP1R cAMP Rel EC50 nM (SEM, n)
human GLP-1R [4] = molecular target: T3, human GLP-1R; test: [125I]-GLP-1 binding (SPA), human GLP-1 receptor; parameters: expressed in transfected cells; crude membranes; conditions: read-out: hGLP1R Ki, (nM) (SEM, n)
Outline: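 Frozen cell pellets are lysed on ice in hypotonic Tris buffer, pH 7.5, homogenized, and centrifuged to a membrane pellet resuspended at about 1 to 3 mg/mL. Binding is then measured in HEPES-based buffer at pH 7.4, and curves are fitted to give IC50 and Ki.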

human Gcg receptor = molecular target: T4, human Gcg receptor (Homo sapiens, UniProt P47871); test: [125I]-Glucagon binding (SPA), human Gcg receptor; conditions: read-out: hGLcgR Ki, nM (SEM, n)
T4 construct: expressed in transfected cells; crude membranes
Outline: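 Crude membranes from cells expressing the receptor, prepared by hypotonic lysis in 50 mM Tris HCl pH 7.5 with protease inhibitors, homogenization and differential centrifugation, were used in a WGA-bead SPA. Binding buffer: 25 mM HEPES pH 7.4, 2.5 mM CaCl2, 1 mM MgCl2, bacitracin, Tween-20.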

human GLP-1R [5] = molecular target: T3, human GLP-1R; test: GLP-1R CHO cell β-arrestin recruitment assay; assay type: cell-based; parameters: host or cells: CHO-K1 PathHunter cells, assay-ready frozen; conditions: for EC50: CHO-K1 cells
Description: Activated G-protein coupled receptors can interact with the β-arrestin family of signalling proteins. […] CHO-K1 cells expressing Pro-Link-tagged Human GLP-1R and enzyme-acceptor-tagged β-arrestin-2 may be obtained from DiscoveRx and prepared as assay-ready frozen cells. Test peptides are solubilized in DMSO and serial dilutions are perfomed using the Echo acoustic dispenser (LabCyte). Assay media is the PathHunter Cell Assay Buffer (DiscoveRx) containing 0.1% w/v hydrolyzed Casein (Sigma). […] Plates are incubated for 90 minutes in a 37′C/5% C02 incubator and 10 ul of PathHunter detection reagent is added (DiscoveRx) and plates are incubated at room temperature for 60 minutes. Luminescence signal is measured. Peptide concentration-response curves fit to a four-parameter logistic model to calculate potency as an EC50.

[6] = PathHunter β-arrestin-2 recruitment, 0.1% casein, read-out: hGLP1R B-Arrestin2 Rel EC50 uM (SEM, n)
[7] = 0.1% w/v hydrolyzed Casein, read-out: hGLP1R B-Arrestin2 Rel EC50

T4 sequence (P47871 26-477): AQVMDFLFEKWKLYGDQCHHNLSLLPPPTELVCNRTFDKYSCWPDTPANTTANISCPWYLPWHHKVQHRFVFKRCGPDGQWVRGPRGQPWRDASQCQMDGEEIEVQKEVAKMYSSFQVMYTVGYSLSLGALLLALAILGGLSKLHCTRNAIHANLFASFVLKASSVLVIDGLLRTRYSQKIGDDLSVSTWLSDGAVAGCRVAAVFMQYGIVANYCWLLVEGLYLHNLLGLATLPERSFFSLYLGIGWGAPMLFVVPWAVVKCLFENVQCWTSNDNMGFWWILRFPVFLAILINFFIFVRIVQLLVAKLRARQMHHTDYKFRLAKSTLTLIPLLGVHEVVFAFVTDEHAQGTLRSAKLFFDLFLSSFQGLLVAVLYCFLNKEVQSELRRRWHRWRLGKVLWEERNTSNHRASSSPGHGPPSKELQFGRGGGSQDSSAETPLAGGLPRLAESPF
T3 sequence (P43220 24-463): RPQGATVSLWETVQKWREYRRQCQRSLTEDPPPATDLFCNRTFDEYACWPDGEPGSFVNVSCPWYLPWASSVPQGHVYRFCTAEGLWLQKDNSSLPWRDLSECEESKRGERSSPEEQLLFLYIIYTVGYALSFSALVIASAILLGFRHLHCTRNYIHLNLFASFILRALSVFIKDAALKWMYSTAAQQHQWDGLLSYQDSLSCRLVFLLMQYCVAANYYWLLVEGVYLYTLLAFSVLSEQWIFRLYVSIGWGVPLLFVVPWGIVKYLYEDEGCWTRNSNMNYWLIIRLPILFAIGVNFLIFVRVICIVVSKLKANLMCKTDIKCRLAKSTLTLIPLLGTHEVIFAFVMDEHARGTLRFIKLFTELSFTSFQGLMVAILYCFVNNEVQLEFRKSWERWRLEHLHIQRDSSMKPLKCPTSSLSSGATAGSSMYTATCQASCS
Chain of human GLP-1 receptor (GLP-1R) (P43220 24-463): as above

| EC50 (human GLP-1R [2]) [nM] | Structure (SMILES) | EC50 [1] [nM] | Ki (human GIP receptor) [nM] | EC50 [3] [nM] | Ki (human GLP-1R [4]) [nM] | Ki (human Gcg receptor) [nM] | EC50 (human GLP-1R [5]; [6]) [µM] | hGLP1R B-Arrestin2 % Top (human GLP-1R [5]; normalized to GLP-1 maximum control) [%] | EC50 (human GLP-1R [5]; [7]) [µM] |
| --- | --- | --- | --- | --- | --- | --- | --- | --- | --- |
| 1.03 | CC[C@H](C)[C@H](NC(=O)[C@H](CC(C)C)NC(=O)[C@H](Cc1ccc(O)cc1)NC(=O)[C@H](CCC(=O)O)NC(=O)[C@@H](NC(=O)[C@H](Cc1ccccc1)NC(=O)[C@H](C)NC(=O)C(C)(C)NC(=O)[C@H](CCC(N)=O)NC(=O)[C@H](C)NC(=O)[C@H](CCCCNC(=O)COCCOCCNC(=O)COCCOCCNC(=O)CC[C@H](NC(=O)CCCCCCCCCCCCCCCCC(=O)O)C(=O)O)NC(=O)[C@H](CCCCN)NC(=O)[C@H](CC(=O)O)NC(=O)[C@H](CC(C)C)NC(=O)[C@H](CC(C)C)NC(=O)[C@@H](NC(=O)[C@H](CO)NC(=O)[C@H](Cc1ccc(O)cc1)NC(=O)[C@H](CC(=O)O)NC(=O)[C@H](CO)NC(=O)[C@@H](NC(=O)[C@H](Cc1ccccc1)NC(=O)[C@@H](NC(=O)CNC(=O)[C@H](CCC(=O)O)NC(=O)C(C)(C)NC(=O)[C@@H](N)Cc1ccc(O)cc1)[C@@H](C)O)[C@@H](C)O)[C@@H](C)CC)C(C)C)C(=O)N[C@@H](CCC(=O)O)C(=O)NCC(=O)NCC(=O)N1CCC[C@H]1C(=O)N[C@@H](CO)C(=O)N[C@@H](CO)C(=O)NCC(N)=O [Example 298] (H-Y[Aib]EGTFTSDYSILLDKK([AEEA-AEEA-γGlu-C18 diacid])AQ[Aib]AFVEYLIEGGPSSG-NH2; N-terminus assumed) | 0.043 | 0.0578 | 0.0957 | 3.03 | > 1370 |  |  |  |
|  | CC[C@H](C)[C@H](NC(=O)[C@H](CC(C)C)NC(=O)[C@H](Cc1ccc(O)cc1)NC(=O)[C@H](CCC(=O)O)NC(=O)[C@@H](NC(=O)[C@H](Cc1ccccc1)NC(=O)[C@H](C)NC(=O)C(C)(C)NC(=O)[C@H](CCC(N)=O)NC(=O)[C@H](C)NC(=O)[C@H](CCCCNC(=O)COCCOCCNC(=O)COCCOCCNC(=O)CC[C@H](NC(=O)CCCCCCCCCCCCCCCCCCC(=O)O)C(=O)O)NC(=O)[C@H](CCCN)NC(=O)[C@H](CC(=O)O)NC(=O)[C@H](CC(C)C)NC(=O)[C@](C)(CC(C)C)NC(=O)[C@@H](NC(=O)[C@H](CO)NC(=O)[C@H](Cc1ccc(O)cc1)NC(=O)[C@H](CC(=O)O)NC(=O)[C@H](CO)NC(=O)[C@@H](NC(=O)[C@H](Cc1ccccc1)NC(=O)[C@@H](NC(=O)CNC(=O)[C@H](CCC(=O)O)NC(=O)C(C)(C)NC(=O)[C@H](N)Cc1ccc(O)cc1)[C@@H](C)O)[C@@H](C)O)[C@@H](C)CC)C(C)C)C(=O)N[C@@H](CCC(=O)O)C(=O)NCC(=O)NCC(=O)N1CCC[C@H]1C(=O)N[C@@H](CO)C(=O)N[C@@H](CO)C(=O)NCC(=O)N[C@@H](C)C(=O)N1CCC[C@H]1C(=O)N1CCC[C@H]1C(=O)N1CCC[C@H]1C(=O)N[C@@H](CO)C(N)=O [Example 360] (H-[dY][Aib]EGTFTSDYSI[αMeL]LD[Orn]K([AEEA-AEEA-γGlu-C20 diacid])AQ[Aib]AFVEYLIEGGPSSGAPPPS-NH2) | 0.197 | 0.128 | 0.145 | 1.74 | 485 | 0.0395 | 25.8 |  |
|  | CC[C@H](C)[C@H](NC(=O)[C@H](CC(C)C)NC(=O)[C@H](Cc1ccc(O)cc1)NC(=O)[C@@H](CCC(=O)O)NC(=O)[C@@H](NC(=O)[C@H](Cc1ccccc1)NC(=O)[C@H](C)NC(=O)C(C)(C)NC(=O)[C@H](CCC(N)=O)NC(=O)[C@H](C)NC(=O)[C@H](CCCCNC(=O)COCCOCCNC(=O)COCCOCCNC(=O)CC[C@H](NC(=O)CCCCCCCCCCCCCCCCCCC(=O)O)C(=O)O)NC(=O)[C@H](CCCN)NC(=O)[C@H](CC(=O)O)NC(=O)[C@H](CC(C)C)NC(=O)[C@](C)(CC(C)C)NC(=O)[C@@H](NC(=O)[C@H](CO)NC(=O)[C@H](Cc1ccc(O)cc1)NC(=O)[C@H](CC(=O)O)NC(=O)[C@H](CO)NC(=O)[C@@H](NC(=O)[C@H](Cc1ccccc1)NC(=O)[C@@H](NC(=O)CNC(=O)[C@H](CCC(=O)O)NC(=O)C(C)(C)NC(=O)[C@H](N)Cc1ccc(O)cc1)[C@@H](C)O)[C@@H](C)O)[C@@H](C)CC)C(C)C)C(=O)N[C@@H](C)C(=O)NCC(=O)NCC(=O)N1CCC[C@H]1C(=O)N[C@@H](CO)C(=O)N[C@@H](CO)C(=O)NCC(=O)N[C@@H](C)C(=O)N1CCC[C@H]1C(=O)N1CCC[C@H]1C(=O)N1CCC[C@H]1C(=O)N[C@@H](CO)C(N)=O [Example 362] (H-[dY][Aib]EGTFTSDYSI[αMeL]LD[Orn]K([AEEA-AEEA-γGlu-C20 diacid])AQ[Aib]AFV[dE]YLIAGGPSSGAPPPS-NH2) | 0.302 | 0.337 | 0.365 | 6.95 | > 1050 | > 11 |  | > 11 |
|  | CC[C@H](C)[C@H](NC(=O)[C@H](CC(C)C)NC(=O)[C@H](Cc1ccc(O)cc1)NC(=O)[C@@H](CCC(=O)O)NC(=O)[C@@H](NC(=O)[C@H](Cc1ccccc1)NC(=O)[C@H](C)NC(=O)C(C)(C)NC(=O)[C@H](CCC(N)=O)NC(=O)[C@H](C)NC(=O)[C@H](CCCCNC(=O)COCCOCCNC(=O)COCCOCCNC(=O)CC[C@H](NC(=O)CCCCCCCCCCCCCCCCC(=O)O)C(=O)O)NC(=O)[C@H](CCCN)NC(=O)[C@H](CC(=O)O)NC(=O)[C@H](CC(C)C)NC(=O)[C@](C)(CC(C)C)NC(=O)[C@@H](NC(=O)[C@H](CO)NC(=O)[C@H](Cc1ccc(O)cc1)NC(=O)[C@H](CC(=O)O)NC(=O)[C@H](CO)NC(=O)[C@@H](NC(=O)[C@H](Cc1ccccc1)NC(=O)[C@@H](NC(=O)CNC(=O)[C@H](CCC(=O)O)NC(=O)C(C)(C)NC(=O)[C@H](N)Cc1ccc(O)cc1)[C@@H](C)O)[C@@H](C)O)[C@@H](C)CC)C(C)C)C(=O)N[C@@H](C)C(=O)NCC(=O)NCC(=O)N1CCC[C@H]1C(=O)N[C@@H](CO)C(=O)N[C@@H](CO)C(=O)NCC(=O)N[C@@H](C)C(=O)N1CCC[C@H]1C(=O)N1CCC[C@H]1C(=O)N1CCC[C@H]1C(=O)N[C@@H](CO)C(N)=O [Example 364] (H-[dY][Aib]EGTFTSDYSI[αMeL]LD[Orn]K([AEEA-AEEA-γGlu-C18 diacid])AQ[Aib]AFV[dE]YLIAGGPSSGAPPPS-NH2) | 0.351 | 0.672 | 1 | 17.2 | > 1150 | > 12 |  | > 12 |
